According to publication PMC4096861 (Clinical lymphoma, myeloma & leukemia, 2013):
Read-outs that look alike come from different tables or passages of the source.

How the values were obtained:
[1] = tested on: c-kit; conditions: @ 250 nM; cited from earlier work
[2] = tested on: aurora kinase B substrate pHH3; test: Western blot of PBMCs from patient blood; assay type: in vivo, human
[3] = tested on: Lck; conditions: read-out: IC50 Lck; cited from earlier work
[4] = tested on: RSK-1; conditions: read-out: IC50 RSK-1; cited from earlier work
[5] = tested on: Src; conditions: read-out: IC50 Src; cited from earlier work
[6] = tested on: Aurora A; conditions: @ 3 nM; cited from earlier work
[7] = tested on: Aurora B; conditions: @ 3 nM; cited from earlier work
[8] = tested on: Fit3; conditions: @ 15 nM; cited from earlier work
[9] = assay type: in vivo, human
[10] = tested on: bone marrow blasts; test: Phase 1: efficacy; assay type: in vivo, human
[11] = Phase 1: plasma pharmacokinetics, Cycle 1; assay type: in vivo, human; conditions: for clearance / Tmax / AUC(0-inf) / Cmax: human
[12] = tested on: AML; conditions: eight of 32 adult AML patients; cited from earlier work
[13] = plasma, intravenous, 144 mg/m^2
[14] = plasma, intravenous, 160 mg/m^2
[15] = plasma, intravenous, 200 mg/m^2
[16] = plasma, intravenous, 216 mg/m^2

With `O=C(Nc1c[nH]nc1-c1nc2ccc(CN3CCOCC3)cc2[nH]1)NC1CC1` [AT9283] as the molecule, how does the inhibition of c-kit [1] read?
Its inhibition of c-kit is 46% @ 250 nM.

And the “pHH3 phosphorylation in PBMCs” value ([2]; 3 mg/m^2/day (9 mg/m^2/72h), two of three patients)?
The value was “inhibition of pHH3 phosphorylation was observed”.

What about the “phosphorylation of aurora kinase B substrate pHH3 in PBMCs” value ([2]; MTD 108 mg/m^2/day (324 mg/m^2/72h), two of three patients) of the same molecule?
Its value is “rapid inhibition of phosphorylation”.

And the IC50 [3]?
Its IC50 is 63 nM.

And the IC50 [5]?
The IC50 was 97 nM.

What about the “inhibition of Aurora A” value [6] of the same molecule?
The value was 52% @ 3 nM.

And the “inhibition of Aurora B” value [7]?
Its value is 58% @ 3 nM.

What about the “inhibition of Fit3” value [8] of the same molecule?
The value was 57% @ 15 nM.

What about the deaths ([9]; 13 deaths of 48 patients) of the same molecule?
Its deaths is 27%.

And the MTD ([9]; 72-hour continuous infusion every 21 days)?
Its MTD is 324 mg/m^2/72h.

And the MTD ([9]; 72-hour infusion)?
Its MTD is 108 mg/m^2/day.

What about the “AE incidence overall: constipation” value ([9]; human, in vivo) of the same molecule?
The value was 21%.

What about the “AE incidence overall: diarrhea” value ([9]; human, in vivo) of the same molecule?
Its value is 29%.

What about the “AE incidence overall: epistaxis” value ([9]; human, in vivo) of the same molecule?
Its value is 17%.

What about the “AE incidence overall: fatigue” value ([9]; human, in vivo) of the same molecule?
Its value is 27%.

What about the “AE incidence overall: febrile neutropenia” value ([9]; human, in vivo) of the same molecule?
Its value is 25%.

And the “AE incidence overall: gastrointestinal disorders” value ([9]; human, in vivo)?
Its value is 75%.

What about the “AE incidence overall: headache” value ([9]; human, in vivo) of the same molecule?
The value was 21%.

What about the “AE incidence overall: nausea” value ([9]; human, in vivo) of the same molecule?
The value was 29%.

And the “AE incidence overall: peripheral edema” value ([9]; human, in vivo)?
Its value is 25%.

And the “AE incidence overall: pneumonia” value ([9]; human, in vivo)?
The value was 29%.

And the “AT9283-related AE incidence: alopecia” value ([9]; human, in vivo)?
Its value is 8%.

What about the “AT9283-related AE incidence: nausea” value ([9]; human, in vivo) of the same molecule?
Its value is 15%.

What about the “AT9283-related AE incidence: stomatitis” value ([9]; human, in vivo) of the same molecule?
Its value is 13%.

What about the “incidence of cardiac tachyarrythmias” value ([9]; human, in vivo) of the same molecule?
Its value is 15%.

What about the “patients withdrawn after treatment due to AEs” value ([9]; human, in vivo) of the same molecule?
The value was 15%.

And the “incidence of AEs (highest)” value ([9]; human, in vivo, 72 h)?
Its value is 100%.

What about the “incidence of AEs (lowest)” value ([9]; human, in vivo, 72 h) of the same molecule?
The value was 29%.

What about the DLTs ([9]; in vivo) of the same molecule?
Its DLTs is “myocardial infarction, hypertension, cardiomyopathy, tumor lysis syndrome, pneumonia, and multiorgan failure”.

And the “left ventricular ejection fraction (LVEF) after severe drop” value ([9]; in vivo)?
Its value is 20–25%.

What about the tolerability of regimen ([9]; in vivo) of the same molecule?
Its tolerability of regimen is “unacceptably toxic”.

And the “reduction in bone marrow blasts” value ([10]; Patient B, MTD 108 mg/m^2/day over 72h, 2 cycles, 62% at baseline v 32% at follow-up)?
Its value is 48%.

And the “objective remission (complete and partial)” value ([10]; all patients)?
Its value is “no objective or partial remissions were observed”.

And the “reduction in bone marrow blasts” value ([10]; approximately one-third of patients with relapsed/refractory AML)?
The value was at least 38%.

What about the “benefit in accelerated phase CML” value ([10]; both patients with accelerated phase CML, cytogenetic response in 1) of the same molecule?
Its value is “evidence of benefit”.

And the “benefit in myeloproliferative disease” value ([10]; patients with myeloproliferative disease)?
The value was “no sustained evidence of treatment benefit”.

What about the “dose proportionality of exposure” value ([11]; Cmax and AUC0-inf) of the same molecule?
Its value is “generally proportional to dose”.

And the clearance ([11]; in vivo)?
The clearance was 5.36 mL/min/kg.

And the Tmax ([11]; in vivo, Tmax)?
The Tmax was 53.8 h.

And the Tmax ([11]; in vivo, Tmax of mean maximum plasma concentrations)?
The Tmax was 41 to 62 h.

And the AUC(0-inf) ([11]; plasma, intravenous, 9 mg/m^2)?
Its AUC(0-inf) is 465 ng·h/mL.

What about the Cmax ([11]; plasma, intravenous, 9 mg/m^2) of the same molecule?
The Cmax was 7.35 ng/mL.

And the clearance ([11]; plasma, intravenous, 9 mg/m^2)?
Its clearance is 9.52 mL/min/kg.

What about the Tmax ([11]; plasma, intravenous, 9 mg/m^2, Tmax, Cycle 1 mean plasma, 9 mg/m^2, 72 hr infusion (n=3)) of the same molecule?
The Tmax was 47.2 h.

And the AUC(0-inf) ([11]; plasma, intravenous, 18 mg/m^2)?
Its AUC(0-inf) is 1070 ng·h/mL.

What about the Cmax ([11]; plasma, intravenous, 18 mg/m^2) of the same molecule?
Its Cmax is 18.1 ng/mL.

And the clearance ([11]; plasma, intravenous, 18 mg/m^2)?
Its clearance is 7.17 mL/min/kg.

What about the Tmax ([11]; plasma, intravenous, 18 mg/m^2, Tmax, Cycle 1 mean plasma, 18 mg/m^2, 72 hr infusion (n=3)) of the same molecule?
Its Tmax is 62 h.

What about the AUC(0-inf) ([11]; plasma, intravenous, 36 mg/m^2) of the same molecule?
The AUC(0-inf) was 2860 ng·h/mL.

What about the Cmax ([11]; plasma, intravenous, 36 mg/m^2) of the same molecule?
Its Cmax is 41.1 ng/mL.

And the clearance ([11]; plasma, intravenous, 36 mg/m^2)?
The clearance was 6.03 mL/min/kg.

What about the Tmax ([11]; plasma, intravenous, 36 mg/m^2, Tmax, Cycle 1 mean plasma, 36 mg/m^2, 72 hr infusion (n=7)) of the same molecule?
Its Tmax is 53.2 h.

What about the AUC(0-inf) ([11]; plasma, intravenous, 72 mg/m^2) of the same molecule?
The AUC(0-inf) was 16300 ng·h/mL.

What about the Cmax ([11]; plasma, intravenous, 72 mg/m^2) of the same molecule?
Its Cmax is 131 ng/mL.

What about the clearance ([11]; plasma, intravenous, 72 mg/m^2) of the same molecule?
The clearance was 1.84 mL/min/kg.

And the Tmax ([11]; plasma, intravenous, 72 mg/m^2, Tmax, Cycle 1 mean plasma, 72 mg/m^2, 72 hr infusion (n=3))?
Its Tmax is 46.7 h.

What about the AUC(0-inf) [11, 13] of the same molecule?
The AUC(0-inf) was 14300 ng·h/mL.

What about the Cmax [11, 13] of the same molecule?
The Cmax was 229 ng/mL.

What about the clearance [11, 13] of the same molecule?
Its clearance is 4.27 mL/min/kg.

What about the Tmax ([11]; plasma, intravenous, 144 mg/m^2, Tmax, Cycle 1 mean plasma, 144 mg/m^2, 72 hr infusion (n=4)) of the same molecule?
The Tmax was 54.7 h.

And the AUC(0-inf) [11, 14]?
Its AUC(0-inf) is 13700 ng·h/mL.

And the Cmax [11, 14]?
Its Cmax is 164 ng/mL.

And the clearance [11, 14]?
The clearance was 5.61 mL/min/kg.

What about the Tmax ([11]; plasma, intravenous, 160 mg/m^2, Tmax, Cycle 1 mean plasma, 160 mg/m^2, 96 hr infusion (n=12)) of the same molecule?
The Tmax was 59.3 h.

And the AUC(0-inf) [11, 15]?
Its AUC(0-inf) is 19100 ng·h/mL.

What about the Cmax [11, 15] of the same molecule?
Its Cmax is 184 ng/mL.

And the clearance [11, 15]?
Its clearance is 4.58 mL/min/kg.

And the Tmax ([11]; plasma, intravenous, 200 mg/m^2, Tmax, Cycle 1 mean plasma, 200 mg/m^2, 120 hr infusion (n=4))?
Its Tmax is 69 h.

What about the AUC(0-inf) [11, 16] of the same molecule?
The AUC(0-inf) was 13000 ng·h/mL.

And the Cmax [11, 16]?
Its Cmax is 228 ng/mL.

What about the clearance [11, 16] of the same molecule?
Its clearance is 7.13 mL/min/kg.

And the Tmax ([11]; plasma, intravenous, 216 mg/m^2, Tmax, Cycle 1 mean plasma, 216 mg/m^2, 72 hr infusion (n=3))?
Its Tmax is 41.3 h.

What about the Cmax ([11]; plasma, intravenous, 486 mg/m^2) of the same molecule?
Its Cmax is 1280 ng/mL.

What about the Tmax ([11]; plasma, intravenous, 486 mg/m^2, Tmax, Cycle 1 mean plasma, 486 mg/m^2, 72 hr infusion (n=3)) of the same molecule?
Its Tmax is 51 h.

Which “haematologic response according to IWG AML criteria” value [12] does the source give for `CCN(CCCOc1ccc2c(Nc3cc(CC(=O)Nc4cccc(F)c4)n[nH]3)ncnc2c1)CCOP(=O)(O)O` [AZD1152] here?
The value was 25%.
